Assays:
barnyardgrass [1] = experiment: Test A pre-/postemergence greenhouse test; type: in vivo, Echinochloa crus-galli; details: for Plant response rating, Barnyardgrass: 0 to 100 scale where 0 is no effect and 100 is complete control; for Barnyardgrass plant response rating: 0 to 100 scale
Summary of the method: (§1)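 Visual injury ratings against untreated controls, taken roughly ten days after treatment in greenhouse. Plants were sprayed postemergence at one- to two-leaf stage (2–10 cm tall); at the same time, seeded loam/sand soil received a directed preemergence spray. Formulation: non-phytotoxic solvent mixture with surfactant.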

crabgrass [2] = experiment: Test A pre-/postemergence greenhouse test; type: in vivo, Digitaria sanguinalis; details: for Plant response rating, Crabgrass, Large: 0 to 100 scale where 0 is no effect and 100 is complete control; for Crabgrass, Large plant response rating: 0 to 100 scale
Summary of the method: as §1

giant foxtail = experiment: Test A pre-/postemergence greenhouse test; type: in vivo, Setaria faberi; details: for Plant response rating, Foxtail, Giant: 0 to 100 scale where 0 is no effect and 100 is complete control; for Foxtail, Giant plant response rating: 0 to 100 scale
Summary of the method: as §1

morningglory = experiment: Test A pre-/postemergence greenhouse test; type: in vivo, Ipomoea spp.; details: for Plant response rating, Morningglory: 0 to 100 scale where 0 is no effect and 100 is complete control; for Morningglory plant response rating: 0 to 100 scale
Summary of the method: as §1

Italian ryegrass = experiment: Test C pre-/postemergence test; type: in vivo, Lolium multiflorum
Summary of the method: (§2)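 Compounds in a non-phytotoxic solvent with surfactant applied preemergence to seeded pots and, at the same time, postemergence to plants 2–18 cm tall (1- to 4-leaf stage). Paddy tests: pots flooded to 3 cm, compound applied into the water, depth held throughout.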

bermudagrass = experiment: Test C pre-/postemergence test; type: in vivo, Cynodon dactylon
Summary of the method: as §2

Surinam grass = experiment: Test C pre-/postemergence test; type: in vivo, Brachiaria decumbens
Summary of the method: as §2

cocklebur = experiment: Test C pre-/postemergence test; type: in vivo, Xanthium strumarium
Summary of the method: as §2

crabgrass [3] = experiment: Test C pre-/postemergence test; type: in vivo, Digitaria sanguinalis
Summary of the method: as §2

Goosegrass = experiment: Test C pre-/postemergence test; type: in vivo, Eleusin indica
Summary of the method: as §2

kochia = experiment: Test C pre-/postemergence test; type: in vivo, Kochia scoparia
Summary of the method: as §2

lambsquarters = experiment: Test C pre-/postemergence test; type: in vivo, Chenopodium album
Summary of the method: as §2

pigweed = experiment: Test C pre-/postemergence test; type: in vivo, Amaranthus retroflexus
Summary of the method: as §2

soybean = experiment: Test C pre-/postemergence test; type: in vivo, Glycine max
Summary of the method: as §2

[4] = system: common (oilseed) sunflower; experiment: Test C pre-/postemergence test; type: in vivo, Helianthus annuus
Summary of the method: as §2

umbrella sedge = experiment: Test C flooded paddy test; type: in vivo, Cyperus difformis; details: Flood
Summary of the method: (§3)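 Pots were flooded to 3 cm above the soil surface at treatment, compound applied directly to the paddy water, and that depth held throughout. Plants were kept in a greenhouse for 13 to 15 days, then visually rated against untreated controls.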

barnyardgrass [5] = experiment: Test C flooded paddy test; type: in vivo, Echinochloa crus-galli; details: Flood
Summary of the method: as §3

[6] = Postemergence, 500 g ai/ha, 0 is no effect, 100 is complete control
[7] = Preemergence, 125 g ai/ha, 0 no effect, 100 complete control
[8] = 62 g ai/ha, Preemergence, scale 0 to 100
[9] = 125 g ai/ha, preemergence, scale 0 (no effect) to 100 (complete control)
[10] = Preemergence, 31 g ai/ha, scale 0 to 100 (0 no effect, 100 complete control)
[11] = preemergence, 250 g ai/ha, scale 0 (no effect) to 100 (complete control)
[12] = 62 g ai/ha, scale 0 to 100 (0 no effect, 100 complete control)
[13] = 250 g ai/ha, scale 0 to 100, 0 no effect, 100 complete control, 13 to 15 days

CCc1cc[n+]([O-])c([S+]([O-])Cc2c(C(F)(F)F)nn(C)c2OCC(F)(F)F)c1 (stereo not drawn) [Compound 59]
Plant response rating, Barnyardgrass (barnyardgrass [1]; Postemergence, 125 g ai/ha): 80 | Barnyardgrass plant response rating (barnyardgrass [1]; [6]): 90 | Barnyardgrass plant response rating (barnyardgrass [1]; [7]): 100 | Plant response rating, Barnyardgrass (barnyardgrass [1]; Preemergence, 500 g ai/ha): 100 | Plant response rating, Crabgrass, Large (crabgrass [2]; Postemergence, 125 g ai/ha): 50 | Crabgrass, Large plant response rating (crabgrass [2]; [6]): 90 | Crabgrass, Large plant response rating (crabgrass [2]; [7]): 90 | Plant response rating, Crabgrass, Large (crabgrass [2]; Preemergence, 500 g ai/ha): 100 | Plant response rating, Foxtail, Giant (giant foxtail; Postemergence, 125 g ai/ha): 60 | Foxtail, Giant plant response rating (giant foxtail; [6]): 90 | Foxtail, Giant plant response rating (giant foxtail; [7]): 100 | Plant response rating, Foxtail, Giant (giant foxtail; Preemergence, 500 g ai/ha): 100 | Plant response rating, Morningglory (morningglory; Postemergence, 125 g ai/ha): 50 | Morningglory plant response rating (morningglory; [6]): 90 | Morningglory plant response rating (morningglory; [7]): 70 | Plant response rating, Morningglory (morningglory; Preemergence, 500 g ai/ha): 100 | Ryegrass, Italian plant response rating (Italian ryegrass; [8]): 55 | Ryegrass, Italian plant response rating (Italian ryegrass; [9]): 80 | Plant response rating, Ryegrass, Italian (Italian ryegrass; [10]): 30 | Ryegrass, Italian plant response rating (Italian ryegrass; [11]): 95 | Bermudagrass plant response rating (bermudagrass; 62 g ai/ha, Preemergence, scale 0 to 100 (0 no effect, 100 complete control)): 100 | Bermudagrass plant response rating (bermudagrass; [9]): 100 | Plant response rating, Bermudagrass (bermudagrass; [10]): 70 | Bermudagrass plant response rating (bermudagrass; [11]): 100 | Surinam Grass plant response rating (Surinam grass; [8]): 80 | Surinam Grass plant response rating (Surinam grass; [9]): 100 | Plant response rating, Surinam Grass (Surinam grass; [10]): 40 | Surinam Grass plant response rating (Surinam grass; [11]): 100 | Cocklebur plant response rating (cocklebur; [8]): 0 | Cocklebur plant response rating (cocklebur; [9]): 30 | Plant response rating, Cocklebur (cocklebur; [10]): 0 | Cocklebur plant response rating (cocklebur; [11]): 80 | Crabgrass, Large plant response rating (crabgrass [3]; [8]): 80 | Crabgrass, Large plant response rating (crabgrass [3]; [9]): 100 | Plant response rating, Crabgrass, Large (crabgrass [3]; [10]): 70 | Crabgrass, Large plant response rating (crabgrass [3]; [11]): 100 | Goosegrass plant response rating (Goosegrass; [8]): 100 | Goosegrass plant response rating (Goosegrass; [9]): 100 | Plant response rating, Goosegrass (Goosegrass; [10]): 100 | Goosegrass plant response rating (Goosegrass; [11]): 100 | Kochia plant response rating (kochia; [8]): 70 | Kochia plant response rating (kochia; [9]): 100 | Plant response rating, Kochia (kochia; [10]): 0 | Kochia plant response rating (kochia; [11]): 100 | Lambsquarters plant response rating (lambsquarters; [8]): 100 | Lambsquarters plant response rating (lambsquarters; [9]): 100 | Plant response rating, Lambsquarters (lambsquarters; [10]): 80 | Lambsquarters plant response rating (lambsquarters; [11]): 100 | Pigweed plant response rating (pigweed; [8]): 100 | Pigweed plant response rating (pigweed; [9]): 100 | Plant response rating, Pigweed (pigweed; [10]): 0 | Pigweed plant response rating (pigweed; [11]): 100 | Soybean plant response rating (soybean; [8]): 10 | Soybean plant response rating (soybean; [9]): 100 | Soybean plant response rating (soybean; [11]): 100 | Sunflower plant response rating [4, 8]: 85 | Sunflower plant response rating [4, 9]: 85 | Plant response rating, Sunflower [4, 10]: 40 | Sunflower plant response rating [4, 11]: 100 | Plant response rating, Sedge, Umbrella (umbrella sedge; [12]): 80 | Plant response rating, Sedge, Umbrella (umbrella sedge; [13]): 100 | Plant response rating, Barnyardgrass (barnyardgrass [5]; [12]): 30 | Plant response rating, Barnyardgrass (barnyardgrass [5]; [13]): 60

— patent US20100298141A1, “SUBSTITUTED PYRIDINE N-OXIDE HERBICIDES” (E. I. DU PONT DE NEMOURS AND COMPANY, priority 2007, published 2010)
